Literature values, collected in PubChem BioAssay AID1259409 (Chemical Carcinogenesis Research Information System (CCRIS), 2018).

System: rodent chemically induced tumor inhibition, incidence and multiplicity
Assay: CCRIS tumor inhibitor studies

Question: With `S=C=NCCCCCCc1ccccc1` as the molecule, how does the “tumour outcome (control, treated, inhibition, significance)” value (Carcinogen: 4-(METHYLNITROSAMINO)-1-(3-PYRIDYL)-1-BUTANONE, 64091-91-4, Dose [Inhibitor]: 0, 1 UMOL/G DIET FOR DURATION OF STUDY BEGINNING 1 WK PRIOR TO CARCINOGEN TREATMENT (STUDY DURATION: 112 WK), Route [Inhibitor]: ORAL, Species: RAT, Strain/Sex: F344/MALE, Target Tissue: Type of Lesion: PANCREAS: ACINAR ADENOMA, Dose [Carcinogen]: 2 PPM IN DRINKING WATER FOR 111 WK, Promoter: NONE USED) read?
Answer: 1/52 (2%), 6/50 (12%), -500%, p=0.04

Question: What about the “tumour outcome (control, treated, inhibition, significance)” value (Carcinogen: 4-(METHYLNITROSAMINO)-1-(3-PYRIDYL)-1-BUTANONE, 64091-91-4, Dose [Inhibitor]: 0, 1 UMOL/G DIET FOR DURATION OF STUDY BEGINNING 1 WK PRIOR TO CARCINOGEN TREATMENT (STUDY DURATION: 112 WK), Route [Inhibitor]: ORAL, Species: RAT, Strain/Sex: F344/MALE, Target Tissue: Type of Lesion: PANCREAS: MALIGNANT TUMOR, Dose [Carcinogen]: 2 PPM IN DRINKING WATER FOR 111 WK, Promoter: NONE USED) of the same molecule?
Answer: 4/52 (8%), 1/50 (2%), 75%, not significant

Question: What about the “tumour outcome (control, treated, inhibition, significance)” value (Carcinogen: 4-(METHYLNITROSAMINO)-1-(3-PYRIDYL)-1-BUTANONE, 64091-91-4, Dose [Inhibitor]: 0, 5 UMOL IN 0.1 ML CORN OIL ONCE 2 HR PRIOR TO CARCINOGEN DOSE (STUDY DURATION: 16 WK), Route [Inhibitor]: GAVAGE, Species: MOUSE, Strain/Sex: STRAIN-A/FEMALE, Target Tissue: Type of Lesion: LUNG: ADENOMA, Dose [Carcinogen]: 10 UMOL IN 0.1 ML SALINE ONCE, Promoter: NONE USED) of the same molecule?
Answer: 100%, 25%, 75%, p<0.01

Question: And the “tumour outcome (control, treated, inhibition, significance)” value (Carcinogen: 4-(METHYLNITROSAMINO)-1-(3-PYRIDYL)-1-BUTANONE, 64091-91-4, Dose [Inhibitor]: 0, 438 PPM IN DIET FOR 22 WK BEGINNING 1 WK PRIOR TO CARCINOGEN DOSE (STUDY DURATION: 98 WK), Route [Inhibitor]: ORAL, Species: RAT, Strain/Sex: F344/MALE, Target Tissue: Type of Lesion: NASAL CAVITY: TUMOR, Dose [Carcinogen]: 1.5 MG/KG BW 3/WK FOR 20 WK, Promoter: NONE USED)?
Answer: 28/36 (78%), 27/36 (75%), 4%, not significant

Question: And the “tumour outcome (control, treated, inhibition, significance)” value (Carcinogen: 4-(METHYLNITROSAMINO)-1-(3-PYRIDYL)-1-BUTANONE, 64091-91-4, Dose [Inhibitor]: 0, 438 PPM IN DIET FOR 22 WK BEGINNING 1 WK PRIOR TO CARCINOGEN TREATMENT (STUDY DURATION: 98 WK), Route [Inhibitor]: ORAL, Species: RAT, Strain/Sex: F344/MALE, Target Tissue: Type of Lesion: LUNG: TUMOR, Dose [Carcinogen]: 1.5 MG/KG BW 3/WK FOR 20 WK, Promoter: NONE USED)?
Answer: 22/33 (67%), 7/36 (19%), 72%, p<0.01

Question: And the “tumour outcome (control, treated, inhibition, significance)” value (Carcinogen: 4-(METHYLNITROSAMINO)-1-(3-PYRIDYL)-1-BUTANONE, 64091-91-4, Dose [Inhibitor]: 0, 876 PPM IN DIET FOR 22 WK BEGINNING 1 WK PRIOR TO CARCINOGEN TREATMENT (STUDY DURATION: 98 WK), Route [Inhibitor]: ORAL, Species: RAT, Strain/Sex: F344/MALE, Target Tissue: Type of Lesion: LUNG: TUMOR, Dose [Carcinogen]: 1.5 MG/KG BW 3/WK FOR 20 WK, Promoter: NONE USED)?
Answer: 22/33 (67%), 8/34 (24%), 64%, p<0.01

Question: And the “tumour outcome (control, treated, inhibition, significance)” value (Carcinogen: 4-(METHYLNITROSAMINO)-1-(3-PYRIDYL)-1-BUTANONE, 64091-91-4, Dose [Inhibitor]: 0, 876 PPM IN DIET FOR 22 WK BEGINNING 1 WK PRIOR TO CARCINOGEN TREATMENT (STUDY DURATION: 98 WK), Route [Inhibitor]: ORAL, Species: RAT, Strain/Sex: F344/MALE, Target Tissue: Type of Lesion: NASAL CAVITY: TUMOR, Dose [Carcinogen]: 1.5 MG/KG BW 3/WK FOR 20 WK, Promoter: NONE USED)?
Answer: 28/36 (78%), 27/36 (75%), 4%, not significant

Question: What about the “tumour outcome (control, treated, inhibition, significance)” value (Carcinogen: 4-(METHYLNITROSAMINO-1-(3-PYRIDYL)-1-BUTANONE, 64091-91-4, Dose [Inhibitor]: O, 0.2 UMOL 1/D FOR 4 D ADMINISTERED PRIOR TO CARCINOGEN TREATMENT (STUDY DURATION: 116 D), Route [Inhibitor]: GAVAGE, Species: MOUSE, Strain/Sex: STRAIN A, Target Tissue: Type of Lesion: LUNG: ADENOMA, Dose [Carcinogen]: 10 UMOL ONCE 2 HR AFTER FINAL DOSE OF INHIBITOR, Promoter: NONE USED) of the same molecule?
Answer: 100%, 70%, 30%, p<0.05

Question: What about the outcome (Carcinogen: BENZO[A]PYRENE, 50-32-8, Dose [Inhibitor]: 0, 5 UMOL IN ACETONE 4 HR PRIOR TO CARCINOGEN DOSE (STUDY DURATION: 20 WK), Route [Inhibitor]: DERMAL, Species: MOUSE, Strain/Sex: STRAIN-A/FEMALE, Target Tissue: Type of Lesion: SKIN: TUMOR, Dose [Carcinogen]: 0.1 UMOL IN ACETONE ONCE, Promoter: 12-O-TETRADECANOYLPHORBOL-13-ACETATE, 16561-29-8) of the same molecule?
Answer: 70%, 90%, 29%, not significant at 15 wk; 95%, 95%, 0%, not significant at 20 wk

Question: What about the “tumour outcome (control, treated, inhibition, significance)” value (Carcinogen: N-BUTYL-N(4-HYDROXYBUTYL)NITROSAMINE (3817-11-6), Dose [Inhibitor]: 0.5 UMOL/G IN DIET BEGINNING 1 WK BEFORE CARCINOGEN EXPOSURE (STUDY DURATION: 16 WK), Route [Inhibitor]: ORAL, Species: RAT, Strain/Sex: WISTAR/MALE, Target Tissue: Type of Lesion: URINARY BLADDER: PAPILLOMA, Dose [Carcinogen]: 0.025% IN DRINKING WATER FOR 15 WK, Promoter: NONE USED) of the same molecule?
Answer: 38/40 (95%), 24/30 (80%), 16%, not significant

Question: And the “tumour outcome (control, treated, inhibition, significance)” value (Carcinogen: N-NITROSOMETHYLBENZYLAMINE [937-40-6], Dose [Inhibitor]: 0, 1 MMOL/KG DIET IMMEDIATELY POST LAST CARCINOGEN DOSE (STUDY DURATION: 25 WK), Route [Inhibitor]: ORAL, Species: RAT, Strain/Sex: F344/MALE, Target Tissue: Type of Lesion: ESOPHAGUS: TUMOR, Dose [Carcinogen]: 0.5 MG/KG BW IN 20% DMSO 3 TIMES/WK FOR 5 WK (STUDY DURATION: 25 WK), Promoter: NONE)?
Answer: 100%, 100%, 0%, not significant

Question: And the “tumour outcome (control, treated, inhibition, significance)” value (Carcinogen: N-NITROSOMETHYLBENZYLAMINE [937-40-6], Dose [Inhibitor]: 0, 2.5 MMOL/KG DIET IMMEDIATELY POST LAST CARCINOGEN DOSE (STUDY DURATION: 25 WK), Route [Inhibitor]: ORAL, Species: RAT, Strain/Sex: F344/MALE, Target Tissue: Type of Lesion: ESOPHAGUS: TUMOR, Dose [Carcinogen]: 0.5 MG/KG BW IN 20% DMSO 3 TIMES/WK FOR 5 WK (STUDY DURATION: 25 WK), Promoter: NONE)?
Answer: 100%, 100%, 0%, not significant
